From patent US9434711B2 (Janssen Pharmaceutica, NV, priority 2007, dated 2016)

Target: canine TRPM8 (Canis lupus familiaris, UniProt Q1A7N1)
Test: In Vitro Canine TRPM8 Functional Assay (Ca2+ fluorescence, icilin activation)
Assay type: cell-based
Details: for IC50: HEK293 cells stably expressing canine TRPM8, icilin activation, eight-point dose-response, read-out: IC50; for inhibition at 0.2 µM / % Inh @ 0.2 (μM): compound at 0.2 μM, canine TRPM8, icilin activation; for inhibition at 0.2 µM: read-out: % Inh @ 0.2
Outline: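 Eight-point dose-response curves, each point averaging quadruplicate wells, gave EC50 or IC50. Canine TRPM8-expressing HEK293 cells, dye-loaded (Calcium 3), were pre-exposed 5 min to compound, then challenged with icilin at roughly EC80; intracellular Ca2+ read by FLIPR or FDSS fluorescence.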

canine TRPM8, sequence (Q1A7N1 1-1104): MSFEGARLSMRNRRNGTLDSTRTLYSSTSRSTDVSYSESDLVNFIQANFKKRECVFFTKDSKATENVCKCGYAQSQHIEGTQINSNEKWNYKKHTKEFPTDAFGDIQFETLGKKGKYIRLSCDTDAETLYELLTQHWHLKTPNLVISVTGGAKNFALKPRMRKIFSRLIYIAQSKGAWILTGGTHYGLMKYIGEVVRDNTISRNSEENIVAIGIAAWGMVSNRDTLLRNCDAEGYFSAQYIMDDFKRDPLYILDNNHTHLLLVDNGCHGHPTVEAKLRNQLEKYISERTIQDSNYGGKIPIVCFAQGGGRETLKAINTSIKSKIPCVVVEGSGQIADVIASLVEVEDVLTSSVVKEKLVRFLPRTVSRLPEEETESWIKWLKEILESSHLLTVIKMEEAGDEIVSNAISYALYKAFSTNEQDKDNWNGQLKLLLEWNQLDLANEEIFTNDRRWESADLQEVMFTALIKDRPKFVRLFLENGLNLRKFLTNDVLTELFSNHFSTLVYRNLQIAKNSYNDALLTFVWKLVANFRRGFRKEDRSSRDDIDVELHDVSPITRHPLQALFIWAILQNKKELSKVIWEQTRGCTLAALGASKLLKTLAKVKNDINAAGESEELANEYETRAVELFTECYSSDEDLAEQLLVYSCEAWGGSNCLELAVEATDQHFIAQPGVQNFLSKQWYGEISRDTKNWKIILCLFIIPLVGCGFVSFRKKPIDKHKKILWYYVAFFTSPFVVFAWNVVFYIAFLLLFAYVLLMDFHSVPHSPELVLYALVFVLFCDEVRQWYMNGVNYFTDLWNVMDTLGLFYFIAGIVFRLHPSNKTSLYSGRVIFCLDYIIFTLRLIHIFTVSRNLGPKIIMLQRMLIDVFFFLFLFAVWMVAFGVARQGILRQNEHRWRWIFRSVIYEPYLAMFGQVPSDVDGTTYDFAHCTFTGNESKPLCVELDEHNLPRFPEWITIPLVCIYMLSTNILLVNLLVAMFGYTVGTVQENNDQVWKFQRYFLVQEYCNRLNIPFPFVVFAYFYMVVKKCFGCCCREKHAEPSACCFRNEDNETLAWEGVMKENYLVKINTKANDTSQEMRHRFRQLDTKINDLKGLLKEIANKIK

Row | SMILES | IC50 [nM] | inhibition at 0.2 µM [%] | % Inh @ 0.2 (μM) [%]
1 | Cc1c(N(Cc2ccc(F)c(C(F)(F)F)c2)S(=O)(=O)c2cc(C(=O)O)cs2)sc2ccccc12 [Compound 527, N-(3-Methyl-benzo[b]thiophen-2-yl)-N-(4-fluoro-3-trifluoromethyl-benzyl)-4-carboxy-thien-2-ylsulfonamide] | 5 | 101 | –
2 | Cc1cc(C(=O)O)sc1S(=O)(=O)N(Cc1ccc(F)c(C(F)(F)F)c1)c1sc2ccccc2c1C [Compound 528, N-(3-Methyl-benzo[b]thiophen-2-yl)-N-(4-fluoro-3-trifluoromethyl-benzyl)-(5-carboxy-3-methyl-thien-2-yl)-sulfonamide] | 16 | 102 | –
3 | Cc1c(N(Cc2ccc(F)c(C(F)(F)F)c2)S(=O)(=O)c2ccc(C(=O)O)o2)sc2ccccc12 [Compound 529, N-(3-Methyl-benzo[b]thiophen-2-yl)-N-(4-fluoro-3-trifluoromethyl-benzyl)-5-carboxy-furan-2-yl-sulfonamide] | – | 35 | –
4 | COC(=O)c1ccc(S(=O)(=O)N(CCCC(F)(F)F)c2sc3ccccc3c2Cl)cc1 [Compound 530, N-(3-Chloro-benzo[b]thiophen-2-yl)-N-(4,4,4-trifluoro-butyl)-4-carbomethoxy-benzenesulfonamide] | – | 54 | –
5 | COC(=O)c1ccc(S(=O)(=O)N(CCCCC(F)(F)F)c2sc3ccccc3c2Cl)cc1 [Compound 531, N-(3-Chloro-benzo[b]thiophen-2-yl)-N-(5,5,5-trifluoro-pentyl)-4-carbomethoxy-benzenesulfonamide] | 46 | 88 | –
6 | CCCCN(c1cc2ccccc2s1)S(=O)(=O)NC [Compound 532, N-(Benzo[b]thiophen-2-yl)-N-(butyl)-N′-methyl-sulfamide] | – | 19 | –
7 | CNS(=O)(=O)N(Cc1ccc(F)c(C(F)(F)F)c1)c1sc2ccccc2c1C [Compound 533, N-(4-Fluoro-3-trifluoromethyl-benzyl)-N-(3-methylbenzo[b]thiophen-2-yl)-N′-methyl-sulfamide] | 32 | 102 | –
8 | CCS(=O)(=O)N(Cc1ccc(F)c(C(F)(F)F)c1)c1sc2ccccc2c1[C@H](C)O [Compound 534] | 2 | – | 102
9 | CCS(=O)(=O)N(Cc1ccc(F)c(C(F)(F)F)c1)c1sc2ccccc2c1[C@@H](C)O [Compound 535] | 1 | – | 102
10 | CCCCN(C1=C(N(C)C)c2ccccc2S1(=O)=O)S(=O)(=O)c1ccc(C(=O)O)cc1 [Compound 536, N-(Butyl)-N-(3-dimethylamino-1,1-dioxo-1H-benzo[b]thiophen-2-yl)-4-carboxy-benzenesulfonamide] | 77 | 89 | –
11 | O=C(O)c1ccc(S(=O)(=O)N(CCCC(F)(F)F)c2sc3ccccc3c2Cl)cc1 [Compound 537, N-(3-Chloro-benzo[b]thiophen-2-yl)-N-(4,4,4-trifluoro-butyl)-4-carboxy-benzenesulfonamide] | 8.2 | 105 | –
12 | O=C(O)c1ccc(S(=O)(=O)N(CCCCC(F)(F)F)c2sc3ccccc3c2Cl)cc1 [Compound 538, N-(3-Chloro-benzo[b]thiophen-2-yl)-N-(5,5,5-trifluoro-pentyl)-4-carboxy-benzenesulfonamide] | 4.9 | 105 | –
13 | CCCCN(c1sc2ccccc2c1C)S(=O)(=O)c1ccc(-c2nnn[nH]2)cc1 [Compound 539, N-(3-Methyl-benzo[b]thiophen-2-yl)-N-(butyl)-4-(1H-tetrazol-5-yl)-benzenesulfonamide] | 6.7 | 105 | –
14 | CCCCN(c1sc2ccccc2c1C)S(=O)(=O)c1ccc(C2=NOS(=O)N2)cc1 (centres unmarked) [Compound 540, N-(3-Methyl-benzo[b]thiophen-2-yl)-N-(butyl)-4-(3H-[1,2,3,5]oxathiadiazole-2-oxide)-benzenesulfonamide] | 12.2 | – | 104.6
15 | CCCCN(c1sc2ccccc2c1C)S(=O)(=O)c1ccc(-c2noc(=O)[nH]2)cc1 [Compound 541, N-(3-Methyl-benzo[b]thiophen-2-yl)-N-(butyl)-4-(5-oxo-4,5-dihydro-[1,2,4]oxadiazol-3-yl)-benzenesulfonamide] | 10.8 | 105 | –
16 | Cc1c(N(Cc2ccc(F)c(C(F)(F)F)c2)S(=O)(=O)c2ccc(-c3nnn[nH]3)cc2)sc2ccccc12 [Compound 542, N-(3-Methyl-benzo[b]thiophen-2-yl)-N-(4-fluoro-3-trifluoromethyl-benzyl)-4-(1H-tetrazol-5-yl)-benzenesulfonamide] | 2.3 | 105 | –
17 | Cc1c(N(Cc2ccc(F)c(C(F)(F)F)c2)S(=O)(=O)c2ccc(C3=NOS(=O)N3)cc2)sc2ccccc12 (centres unmarked) [Compound 543, N-(3-Methyl-benzo[b]thiophen-2-yl)-N-(4-fluoro-3-trifluoromethyl-benzyl)-4-(3H-[1,2,3,5]oxathiadiazole-2-oxide)-benzenesulfonamide] | 7.2 | – | 104.46

Row | SMILES | IC50 [nM] | inhibition at 0.2 µM [%] | % Inh @ 0.2 (μM) [%]
18 | Cc1c(N(Cc2ccc(F)c(C(F)(F)F)c2)S(=O)(=O)c2ccc(-c3noc(=O)[nH]3)cc2)sc2ccccc12 [Compound 544, N-(3-Methyl-benzo[b]thiophen-2-yl)-N-(4-fluoro-3-trifluoromethyl-benzyl)-4-(5-oxo-4,5-dihydro-[1,2,4]oxadiazol-3-yl)-benzenesulfonamide] | 1.8 | 105 | –
19 | Cc1c(N(CCCCC(F)(F)F)S(=O)(=O)c2ccc(C(=O)[O-])cc2)sc2ccccc12.[Na+] [Compound 545, Sodium, N-(3-Methylbenzo[b]thiophen-2-yl)-N-(5,5,5-trifluoro-pentyl)-4-carboxy-benzenesulfonamide] | 1.9 | – | 104.78
20 | Cc1c(N(Cc2ccc(F)c(C(F)(F)F)c2)S(=O)(=O)c2cccc(C#N)c2)sc2ccccc12 [Compound 546, N-(4-Fluoro-3-trifluoromethyl-benzyl)-N-(3-methyl-benzo[b]thiophen-2-yl)-3-cyano-benzenesulfonamide] | 68.3 | 85.7 | –
21 | CC(C)c1c(N(Cc2ccc(F)c(C(F)(F)F)c2)S(=O)(=O)c2ccccc2)sc2ccccc12 [Compound 547, N-(4-Fluoro-3-trifluoromethyl-benzyl)-N-(3-isopropyl-benzo[b]thiophen-2-yl)-benzenesulfonamide] | 7.4 | 105 | –
22 | CC(C)c1c(N(CCC2CC2)S(=O)(=O)c2ccccc2)sc2ccccc12 [Compound 548, N-(2-Cyclopropyl-ethyl)-N-(3-isopropyl-benzo[b]thiophen-2-yl)-benzenesulfonamide] | 28.9 | 102 | –
23 | Cc1c(N(CCC2CC2)S(=O)(=O)c2cccc(C#N)c2)sc2ccccc12 [Compound 549, N-(2-Cyclopropyl-ethyl)-N-(3-methyl-benzo[b]thiophen-2-yl)-3-cyano-benzenesulfonamide] | 15.9 | 104 | –
24 | Cc1c(N(CCC(F)(F)F)S(=O)(=O)c2cccc(C#N)c2)sc2ccccc12 [Compound 550, N-(3-Methyl-benzo[b]thiophen-2-yl)-N-(3,3,3-trifluoro-propyl)-3-cyano-benzenesulfonamide] | 18.8 | 104 | –
25 | Cc1c(N(CCCC(F)(F)F)S(=O)(=O)c2cccc(C#N)c2)sc2ccccc12 [Compound 551, N-(3-Methyl-benzo[b]thiophen-2-yl)-N-(4,4,4-trifluoro-butyl)-3-cyano-benzenesulfonamide] | 88.6 | 94.4 | –
26 | Cc1c(N(CCCCC(F)(F)F)S(=O)(=O)c2cccc(C#N)c2)sc2ccccc12 [Compound 552, N-(3-Methyl-benzo[b]thiophen-2-yl)-N-(5,5,5-trifluoro-pentyl)-3-cyano-benzenesulfonamide] | 25.1 | 101 | –
27 | CCCCN(c1sc2ccccc2c1Cl)S(=O)(=O)NC [Compound 553, N-(3-Chloro-benzo[b]thiophen-2-yl)-N-(butyl)-N′-methyl-sulfamide] | – | 38.7 | –
28 | CCCCN(c1sc2ccccc2c1Br)S(=O)(=O)NC [Compound 554, N-(3-Bromo-benzo[b]thiophen-2-yl)-N-(butyl)-N′-methyl-sulfamide] | – | 52.3 | –
29 | Cc1c(N(Cc2ccc(F)c(C(F)(F)F)c2)S(=O)(=O)c2ccc(C(=O)NO)cc2)sc2ccccc12 [Compound 555, 4-([4-Fluoro-3-trifluoromethyl-benzyl)-(3-methyl-benzo[b]thiophen-2-yl)-sulfamoyl]-N-hydroxy-benzamide] | 21.9 | 102 | –
30 | CCCCN(c1cc2ccccc2s1)S(=O)(=O)c1ccc(C(=O)O)cc1 [Compound 556, N-(Benzo[b]thiophen-2-yl)-N-(butyl)-4-carboxy-benzenesulfonamide] | 48.2 | 99.3 | –
31 | Cc1c(N(Cc2ccc(F)c(C(F)(F)F)c2)S(=O)(=O)c2ccc(C(=O)O)cc2)sc2cc(C(F)(F)F)ccc12 [Compound 557, N-(3-Methyl-6-trifluoromethyl-benzo[b]thiophen-2-yl)-N-(4-fluoro-3-trifluoromethyl-benzyl)-4-carboxy-benzenesulfonamide] | – | 39.5 | –
32 | CCCCN(c1sc2cc(C(F)(F)F)ccc2c1C)S(=O)(=O)c1ccc(C(=O)O)cc1 [Compound 558, N-(3-Methyl-6-trifluoromethyl-benzo[b]thiophen-2-yl)-N-(butyl)-4-carboxy-benzenesulfonamide] | 99.4 | 80.9 | –
33 | CCCCN(c1sc2ccccc2c1Br)S(=O)(=O)c1ccc(N2CCOCC2)cc1 [Compound 559, N-(3-Bromo-benzo[b]thiophen-2-yl)-N-(butyl)-4-morpholine-benzenesulfonamide] | 3.2 | – | 104.59
34 | CCCCN(c1sc2ccccc2c1Br)S(=O)(=O)c1ccc(N(C)C)cc1 [Compound 560, N-(3-Bromo-benzo[b]thiophen-2-yl)-N-(butyl)-4-dimethylamino-benzenesulfonamide] | 65.7 | 104 | –
